{"source": "patent US9220705B2", "about": "“Method of treating colorectal cancer” (priority 2013, dated 2015)", "key": {"[1]": {"test_system": "2008 ovarian cancer cells", "assay": "MTT cytotoxicity assay, cross-resistance profile", "assay_type": "cell-based, human", "settings": "72 h", "source_text": "(§1) Human breast (MCF-7) and colon (HCT-15, DDL1, SW480 and CaCo-2) carcinoma cell lines along with melanoma (A375) were obtained from the American Type Culture Collection (ATCC, Rockville, Md.). A431 are human cervical carcinoma cells kindly provided by Prof. F. Zunino (Molecular Pharmacology Unit, Experimental Oncology and Molecular Medicine, Istituto Nazionale dei Tumori, Milan, Italy). […] G. Marverti (Dept. of Biomedical Science, University of Modena, Italy). LoVo human colon-carcinoma cell line and its multidrug-resistant sublime (LoVo MDR) were kindly provided by Prof F. Maj one (Department of Biology of Padova University, Italy). […] Cell lines were maintained in the logarithmic phase at 37° C. in a 5% carbon dioxide atmosphere using the following culture media containing 10% fetal calf serum (Euroclone, Milan, Italy), antibiotics (50 units mL^−1 penicillin and 50 μg mL^−1 streptomycin), and 2 mM L-glutamine in: i) RPMI-1640 medium (Euroclone) for MCF-7, HCT-15, A431, DLD 1, 2008, and C13* cells; ii) F-12 HAM'S (Sigma Chemical Co.) for LoVo, LoVo MDR, and LoVo-OXP cells; iii) DMEM for A375 and SW 480 cells; and iv) MEM for CaCo-2 cells.\n(§2) The growth inhibitory effect towards tumor cell lines was evaluated by means of the MTT (3-(4,5-dimethylthiazol-2-yl)-2,5-diphenyltetrazolium bromide) assay (Alley, M. C., et al., Cancer Res. 1988, 48, 589-601).\n(§3) Briefly, depending upon the growth characteristics of the cell line, 3-8×10^3 cells well^−1, were seeded in 96-well microplates in growth medium (100 μL) and then incubated at 37° C. in a 5% carbon dioxide atmosphere. After 24 h, the medium was removed and replaced with a fresh one containing the compound to be studied, at the appropriate concentration, dissolved in 0.9% sodium chloride solution just before use. Triplicate cultures were established for each treatment. After 72 h, each well was treated with […] of a 5 mg mL^−1 MTT saline solution and, after 5 h of incubation, 100 μL of a sodium dodecylsulfate (SDS) solution in 0.01 M HCl were added. After an overnight incubation, the inhibition of cell growth induced by the tested complexes was determined by measuring the absorbance of each well at 570 nm using a BioRad 680 microplate reader. Mean absorbance for each drug dose was expressed as percentage of the control and plotted vs. drug concentration. Dose-response curves were fitted and IC50 values were calculated with four parameter logistic model (4PL).\n(§4) A LoVo cell line retaining a multidrug resistance phenotype was also considered (LoVo MDR). Cross-resistance profiles were evaluated by means of the resistance factor (RF), which is defined as the ratio between the IC50 value for the resistant cells and that arising from the sensitive cells (Table 2)."}, "[2]": {"test_system": "C13* cisplatin resistant ovarian cancer cells", "assay": "MTT cytotoxicity assay, cross-resistance profile", "assay_type": "cell-based, human", "source_text": "as §1, §2, §3, §4"}, "[3]": {"test_system": "LoVo-OXP oxaliplatin resistant colon cancer cells", "assay": "MTT cytotoxicity assay, cross-resistance profile", "assay_type": "cell-based, human", "source_text": "as §1, §2, §3, §4"}, "[4]": {"test_system": "LoVo MDR multidrug resistant colon carcinoma subline", "assay": "MTT cytotoxicity assay, cross-resistance profile", "assay_type": "cell-based, human", "source_text": "as §1, §2, §3, §4\nIn Table 2 are also reported the results obtained in a multidrug resistant (MDR) colon carcinoma subline, LoVo MDR, in which the resistance to doxorubicin, a drug belonging to the MDR spectrum, is associated with an overexpression of multi-specific drug transporters, such as the 170 kDa P-glycoprotein (P-gp) (Wersinger, C., et al., Amino Acids 2000, 19, 667-685). It is well known that acquired MDR, whereby cells become refractory to multiple drugs, poses most important challenge to the success of anticancer chemotherapy."}, "SW480": {"test_system": "SW480", "assay": "MTT cytotoxicity assay, 72 h", "assay_type": "cell-based, human", "settings": "SW480, colon", "source_text": "as §1, §2, §3\n(§5) Compound 1 was prepared for the first time almost twenty years ago however, until now, it had been tested (both in vitro and in vivo) only in a limited number of tumor cell lines (Hoeschele, J. D., et al., J. Med. Chem. 1994, 37, 2630-2636 and Shamsuddin, S., et al., J. Inorg. Biochem. 1996, 61, 291-301). The Pt(II) and Pt(IV) complexes containing isomeric forms of diaminocyclohexane, [PtCl2(cis-1,4-DACHA](1), [PtCl2(1R,2R-DACH)] (2), [Pt(OXA)(cis-1,4-DACH)] (3), cis,trans,cis-[Pt^IVCl2(OH)2(cis-1,4-DACH)] (4), cis,trans,cis-[Pt^IVCl2(DCA)2(cis-1,4-DACH)] (5), [Pt(CBDCA)(cis-1,4-DACH)] (6), cis,trans,cis-[Pt^IV(OXA)(OH)2(cis-1,4-DACH)] (7), and cis,trans,cis-[Pt^IV(OXA)(DCA)2(cis-1,4-DACH)] (8) were evaluated for their cytotoxic activity towards a panel of human tumor cell lines including cervical (A431), breast (MCF-7), cancers along with a melanoma (A375) and 4 different colon cancer cell lines corresponding to different stages of the disease progression (HCT-15, SW480, CaCo-2, DLD-1). The cytotoxicity was evaluated by means of the MTT test for 72 h treatment with increasing concentrations of the tested compounds."}, "A375": {"test_system": "A375", "assay": "MTT cytotoxicity assay, 72 h", "assay_type": "cell-based, human", "settings": "A375, skin", "source_text": "as §1, §2, §3, §5"}, "MCF-7": {"test_system": "MCF-7", "assay": "MTT cytotoxicity assay, 72 h", "assay_type": "cell-based, human", "settings": "MCF-7, breast", "source_text": "as §1, §2, §3, §5"}, "A431": {"test_system": "A431", "assay": "MTT cytotoxicity assay, 72 h", "assay_type": "cell-based, human", "settings": "A431, cervix", "source_text": "as §1, §2, §3, §5"}, "HCT-15": {"test_system": "HCT-15", "assay": "MTT cytotoxicity assay, 72 h", "assay_type": "cell-based, human", "settings": "HCT-15, colon", "source_text": "as §1, §2, §3, §5"}, "DLD-1": {"test_system": "DLD-1", "assay": "MTT cytotoxicity assay, 72 h", "assay_type": "cell-based, human", "settings": "DLD-1, colon", "source_text": "as §1, §2, §3, §5"}, "[5]": {"test_system": "panel of human tumor cell lines (A431, MCF-7, A375, HCT-15, SW480, CaCo-2, DLD-1)", "assay": "MTT cytotoxicity, comparison over the Table 1 panel", "assay_type": "cell-based", "settings": "in five out of the seven cell lines", "description": "as §3, with “After” for “Briefly, depending upon the growth characteristics of the cell line, 3-8×10^3 cells well^−1, were seeded in 96-well microplates in growth medium (100 μL) and then incubated at 37° C. in a 5% carbon dioxide atmosphere. After”\nThe cytotoxicity was evaluated by means of the MTT test for 72 h treatment with increasing concentrations of the tested compounds."}, "CaCo-2": {"test_system": "CaCo-2", "assay": "MTT cytotoxicity assay, 72 h", "assay_type": "cell-based, human", "settings": "CaCo-2, colon", "source_text": "(§6) Human breast (MCF-7) and colon (HCT-15, DDL1, SW480 and CaCo-2) carcinoma cell lines along with melanoma (A375) were obtained from the American Type Culture Collection (ATCC, Rockville, Md.). A431 are human cervical carcinoma cells kindly provided by Prof. F. Zunino (Molecular Pharmacology Unit, Experimental Oncology and Molecular Medicine, Istituto Nazionale dei Tumori, Milan, Italy). […] G. Marverti (Dept. of Biomedical Science, University of Modena, Italy). LoVo human colon-carcinoma cell line and its multidrug-resistant sublime (LoVo MDR) were kindly provided by Prof F. Maj one (Department of Biology of Padova University, Italy).\nas §2\nBriefly, depending upon the growth characteristics of the cell line, 3-8×10^3 cells well^−1, were seeded in 96-well microplates in growth medium (100 μL) and then incubated at 37° C. in a 5% carbon dioxide atmosphere. […] After an overnight incubation, the inhibition of cell growth induced by the tested complexes was determined by measuring the absorbance of each well at 570 nm using a BioRad 680 microplate reader. Mean absorbance for each drug dose was expressed as percentage of the control and plotted vs. drug concentration. […]"}, "LoVo colon cancer cells": {"test_system": "LoVo colon cancer cells", "assay": "MTT cytotoxicity assay, cross-resistance profile", "assay_type": "cell-based, human", "settings": "72 h", "source_text": "as §6, §2, §3, §4"}}, "data": [{"substance": "(OC-6-33)-dichloro(cis-1,4-cyclohexanediamine-N,N′)dihydroxyplatinum [Compound 4]", "values": [{"measurement": "IC50", "setting": "[1]", "value": "9.42 ± 1.16", "unit": "µM"}, {"measurement": "IC50", "setting": "[2]; C13*, 72 h, MTT", "value": "13.8 ± 3.53", "unit": "µM"}, {"measurement": "R.F. (resistance factor)", "setting": "[2]; IC50 C13* / IC50 2008, cross-resistance with cisplatin", "value": 1.5}, {"measurement": "R.F. (resistance factor)", "setting": "[3]; IC50 LoVo-OXP / IC50 LoVo, cross-resistance with oxaliplatin", "value": 1.6}, {"measurement": "IC50", "setting": "[3]; LoVo-OXP, 72 h, MTT", "value": "9.46 ± 2.15", "unit": "µM"}, {"measurement": "R.F. (resistance factor)", "setting": "[4]; IC50 LoVo-MDR / IC50 LoVo", "value": 1.5}, {"measurement": "IC50", "setting": "[4]; LoVo-MDR, 72 h, MTT", "value": "9.26 ± 2.11", "unit": "µM"}, {"measurement": "IC50", "setting": "SW480", "value": "6.32 ± 2.15", "unit": "µM"}, {"measurement": "IC50", "setting": "A375", "value": "6.23 ± 1.96", "unit": "µM"}, {"measurement": "IC50", "setting": "MCF-7", "value": "7.01 ± 2.05", "unit": "µM"}, {"measurement": "IC50", "setting": "A431", "value": "6.33 ± 1.99", "unit": "µM"}, {"measurement": "IC50", "setting": "HCT-15", "value": "10.3 ± 1.42", "unit": "µM"}, {"measurement": "IC50", "setting": "DLD-1", "value": "7.74 ± 2.16", "unit": "µM"}, {"measurement": "IC50 values fold lower than that of cisplatin", "setting": "[5]", "value": "up to 2"}, {"measurement": "IC50", "setting": "CaCo-2", "value": "7.12 ± 3.13", "unit": "µM"}, {"measurement": "IC50", "setting": "LoVo colon cancer cells", "value": "6.64 ± 2.7", "unit": "µM"}]}]}
